# From article PMC7587962, “Evaluation of Cytotoxicity and α-Glucosidase Inhibitory Activity of Amide and Polyamino-Derivatives of Lupane Triterpenoids” (Molecules, 2020)
# Like-named read-outs stand apart in the source and are kept apart here.
# Key:
# HOP-92 = assay: NCI-60 SRB screen: non-small cell lung cancer HOP-92; type: cell-based, human; conditions: HOP-92
# SK-OV-3 = assay: NCI-60 SRB screen: ovarian cancer SK-OV-3; type: cell-based, human; conditions: SK-OV-3
# SF-268 = assay: NCI-60 SRB screen: CNS cancer SF-268; type: cell-based, human; conditions: SF-268
# NCI-H322M = assay: NCI-60 SRB screen: non-small cell lung cancer NCI-H322M; type: cell-based, human
# NSCL cancer subpanel = assay: NCI-60 screen, subpanel NSCL cancer
# SNB-75 = assay: NCI-60 SRB screen: CNS cancer SNB-75; type: cell-based, human; conditions: SNB-75
# OVCAR-4 = assay: NCI-60 SRB screen: ovarian cancer OVCAR-4; type: cell-based; conditions: Homo sapiens; OVCAR-4; five concentrations, 48 h, SRB; read-out: GI50
# PC-3 = assay: NCI-60 SRB screen: prostate cancer PC-3; type: cell-based, human; conditions: PC-3
# HL-60(TB) = assay: NCI-60 SRB screen: leukemia HL-60(TB); type: cell-based; conditions: Homo sapiens, 48 h, HL-60(TB)
# Ovarian Cancer subpanel = assay: NCI-60 screen, subpanel Ovarian Cancer
# HOP-62 = assay: NCI-60 SRB screen: non-small cell lung cancer HOP-62; type: cell-based, human; conditions: HOP-62
# RXF 393 = assay: NCI-60 SRB screen: renal cancer RXF 393; type: cell-based, human; conditions: RXF 393
# NCI-H460 = assay: NCI-60 SRB screen: non-small cell lung cancer NCI-H460; type: cell-based; conditions: Homo sapiens, 48 h, NCI-H460
# A498 = assay: NCI-60 SRB screen: renal cancer A498; type: cell-based, human; conditions: A498
# NCI-H522 = assay: NCI-60 SRB screen: non-small cell lung cancer NCI-H522; type: cell-based, human; conditions: NCI-H522
# SK-MEL-28 = assay: NCI-60 SRB screen: melanoma SK-MEL-28; type: cell-based, human; conditions: SK-MEL-28
# Breast cancer subpanel = assay: NCI-60 screen, subpanel Breast cancer
# IGROV1 = assay: NCI-60 SRB screen: ovarian cancer IGROV1; type: cell-based, human; conditions: IGROV1
# MDA-MB-468 = assay: NCI-60 SRB screen: breast cancer MDA-MB-468; type: cell-based, human
# UO-31 = assay: NCI-60 SRB screen: renal cancer UO-31; type: cell-based, human; conditions: UO-31
# [1] = test system: 60 human tumor cell lines; conditions: single dose 10 µM
# SR = assay: NCI-60 SRB screen: leukemia SR; type: cell-based; conditions: Homo sapiens, 48 h
# Colon Cancer subpanel = assay: NCI-60 screen, subpanel Colon Cancer
# TK-10 = assay: NCI-60 SRB screen: renal cancer TK-10; type: cell-based, human; conditions: TK-10
# RPMI-8226 = assay: NCI-60 SRB screen: leukemia RPMI-8226; type: cell-based; conditions: Homo sapiens, 48 h, RPMI-8226
# [2] = test system: 60 human tumor cell lines; assay: cells
# COLO 205 = assay: NCI-60 SRB screen: colon cancer COLO 205; type: cell-based, human; conditions: COLO 205
# Melanoma subpanel = assay: NCI-60 screen, subpanel Melanoma
# T-47D = assay: NCI-60 SRB screen: breast cancer T-47D; type: cell-based, human; conditions: T-47D
# SK-MEL-2 = assay: NCI-60 SRB screen: melanoma SK-MEL-2; type: cell-based, human; conditions: SK-MEL-2
# SF-539 = assay: NCI-60 SRB screen: CNS cancer SF-539; type: cell-based, human; conditions: SF-539
# CNS cancer subpanel = assay: NCI-60 screen, subpanel CNS cancer
# OVCAR-5 = assay: NCI-60 SRB screen: ovarian cancer OVCAR-5; type: cell-based, human; conditions: OVCAR-5
# HCC-2998 = assay: NCI-60 SRB screen: colon cancer HCC-2998; type: cell-based, human; conditions: HCC-2998
# [3] = Homo sapiens, five concentrations, 48 h, SRB, read-out: GI50
# [4] = single dose 10 µM, read-out: Percentage Cell Growth
# [5] = five concentrations, SRB, read-out: GI50
smiles,measurement,setting,value
C=C(C)[C@@H]1CC[C@]2(C(=O)NCCNCCNCCN)CC[C@]3(C)[C@H](CC[C@@H]4[C@@]5(C)CC[C@H](O)C(C)(C)[C@@H]5CC[C@]43C)[C@@H]12 [Compound 6],Percentage Cell Growth,HOP-92; single dose 10 µM,−65.35%
same,GI50,HOP-92; [3],4.61 µM
same,GI50,SK-OV-3; [3],17.5 µM
same,Percentage Cell Growth,SK-OV-3; single dose 10 µM,−14.17%
same,GI50,SF-268; [3],13.5 µM
same,Percentage Cell Growth,SF-268; single dose 10 µM,−30.99%
same,GI50,NCI-H322M; [3],15.1 µM
same,Percentage Cell Growth,NCI-H322M; single dose 10 µM,−83.84%
same,"MID b, average sensitivity of all cell line of particular subpanel",NSCL cancer subpanel,11.88 µM
same,"Selectivity, ratio MID a: MID b",NSCL cancer subpanel,1.02
same,GI50,SNB-75; [3],11.1 µM
same,Percentage Cell Growth,SNB-75; single dose 10 µM,−79.32%
same,GI50,OVCAR-4,14.1 µM
same,GI50,PC-3; [3],2950 nM
same,Percentage Cell Growth,PC-3; single dose 10 µM,1.07%
same,activity at 10 µM,HL-60(TB); [4],-24%
same,GI50,HL-60(TB); [5],7.33 µM
same,"MID b, average sensitivity of all cell line of particular subpanel",Ovarian Cancer subpanel,14.10 µM
same,"Selectivity, ratio MID a: MID b",Ovarian Cancer subpanel,0.86
same,Percentage Cell Growth,HOP-62; single dose 10 µM,−69.12%
same,GI50,HOP-62; [3],16.5 µM
same,GI50,RXF 393; [3],13.2 µM
same,Percentage Cell Growth,RXF 393; single dose 10 µM,−82.88%
same,activity at 10 µM,NCI-H460; [4],-100%
same,GI50,NCI-H460; [5],14.7 µM
same,Percentage Cell Growth,A498; single dose 10 µM,−32.64%
same,GI50,A498; [3],19.6 µM
same,GI50,NCI-H522; [3],10.3 µM
same,Percentage Cell Growth,NCI-H522; single dose 10 µM,−57.83%
same,GI50,SK-MEL-28; [3],16 µM
same,Percentage Cell Growth,SK-MEL-28; single dose 10 µM,−98.68%
same,"MID b, average sensitivity of all cell line of particular subpanel",Breast cancer subpanel,13.86 µM
same,"Selectivity, ratio MID a: MID b",Breast cancer subpanel,0.88
same,GI50,"IGROV1; Homo sapiens, IGROV-1, five concentrations, 48 h, SRB, read-out: GI50",16.1 µM
same,Percentage Cell Growth,IGROV1; single dose 10 µM,−81.43%
same,GI50,MDA-MB-468; [3],8.88 µM
same,Percentage Cell Growth,MDA-MB-468; single dose 10 µM,−48.60%
same,GI50,UO-31; [3],11.7 µM
same,Percentage Cell Growth,UO-31; single dose 10 µM,−100.00%
same,"cancer cell lethality, range of percentage growth",[1]; cell lines with negative growth,−4.72% to −100%
same,cases of cancer cell lethality,[1]; number of cell lines,57
same,activity at 10 µM,SR; [4],-4.72%
same,GI50,SR; [5],6.76 µM
same,"MID b, average sensitivity of all cell line of particular subpanel",Colon Cancer subpanel,11.72 µM
same,"Selectivity, ratio MID a: MID b",Colon Cancer subpanel,1.04
same,GI50,TK-10; [3],15.8 µM
same,Percentage Cell Growth,TK-10; single dose 10 µM,−67.30%
same,activity at 10 µM,RPMI-8226; [4],-8.15%
same,GI50,RPMI-8226; [5],2810 nM
same,GI50,[2]; read-out: GI50 ranges against all panels of NCI60,2.95 to 20.1 µM
same,GI50,"[2]; read-out: MID a, average sensitivity of all cell line (GI50-MID)",12.2 µM
same,Percentage Cell Growth,COLO 205; single dose 10 µM,−19.47%
same,GI50,COLO 205; [3],15.9 µM
same,"MID b, average sensitivity of all cell line of particular subpanel",Melanoma subpanel,13.58 µM
same,"Selectivity, ratio MID a: MID b",Melanoma subpanel,0.89
same,GI50,"T-47D; Homo sapiens, T47D, five concentrations, 48 h, SRB, read-out: GI50",10.9 µM
same,Percentage Cell Growth,T-47D; single dose 10 µM,−32.56%
same,GI50,SK-MEL-2; [3],16.8 µM
same,Percentage Cell Growth,SK-MEL-2; single dose 10 µM,−65.39%
same,GI50,SF-539; [3],11.1 µM
same,Percentage Cell Growth,SF-539; single dose 10 µM,−100.00%
same,"MID b, average sensitivity of all cell line of particular subpanel",CNS cancer subpanel,12.52 µM
same,"Selectivity, ratio MID a: MID b",CNS cancer subpanel,0.97
same,GI50,OVCAR-5; [3],18.6 µM
same,Percentage Cell Growth,OVCAR-5; single dose 10 µM,−83.37%
same,Percentage Cell Growth,HCC-2998; single dose 10 µM,−90.36%
same,GI50,HCC-2998; [3],14.1 µM
